According to patent US20240033234A1, “THERAPEUTIC COMPOUNDS, FORMULATIONS, AND USE THEREOF” (Tvardi Therapeutics, Inc., priority 2022, published 2024):
Where “and” joins values, the source holds several entries; their conditions need not be identical. Equal entries are not always repeated.

Experiment: Accelerated and long term stability study of TTI-101 (Batch A, Batch B): HPLC assay, purity, impurities and water content after storage at 5° C., 25° C./60% RH, 30° C./65% RH or 40° C./75% RH
Type: physicochemical
Method: Exemplary HPLC conditions: diluent was 0.1% trifluoroacetic acid (TFA) in acetonitrile, Mobile Phase A was 0.05% TFA in water, and Mobile Phase B was 0.05% TFA in acetonitrile, column (Agilent, Eclipse XDB-C18, 3.0×100 mm, particle size 1.8 μm), flow (0.425 mL/min), and detector (280 nm diode array).
Batch A was prepared analogously using Method 3 as described in Example 1. Batch B was prepared according to Method 5 as described in Example 1.
Samples of TTI-101 were stored at 5° C., 25° C./60% RH, 30° C./65% RH, or 40° C./75% RH. TTI-101 was stored in an LDPE bag enclosed with a Nylon cable tie and then transferred to another LDPE bag and enclosed with a Nylon cable tie. The enclosure was put into an HDPE bottle and closed with a polyethylene-lined polypropylene cap. The samples were stored under the above-identified conditions.
The samples were analyzed using HPLC with the exemplary conditions identified above. Relative retention time (RRT) for Compound 5 was about 0.83, Compound 4 was about 1.05-1.06, Compound 6 was about 1.15-1.17, and compound of formula (IV) was about 0.99.
• NA not applicable • NQ ≥0.02% and <0.05% • Avg average • Cmpd compound • — no peak • M month • RRT relative retention time

[1] = Storage 5° C., 4.5 M (25° C./60% RH) + 1.5 M (5° C.), Avg
[2] = Storage 5° C., 4.5 M (25° C./60% RH) + 1.5 M (5° C.), Prep P1-P2
[3] = Storage 5° C., 4.5 M (25° C./60% RH) + 1.5 M (5° C.), Prep P1-P2, listed as Batch B
[4] = Storage 5° C., 9 M, Prep P1-P2, listed as Batch B
[5] = Storage 25° C./60% RH, 0 M, Avg
[6] = Storage 25° C./60% RH, 0 M, Prep P1-P5

Structure (SMILES): COc1ccc(S(=O)(=O)Nc2cc(-c3c(O)ccc4ccccc34)c(O)c3ccccc23)cc1 [TTI-101]
- Water Content (Storage 5° C., 0 M, Avg): 0.1%
- Water Content (Storage 5° C., 0 M, Prep P1-P2): 0.1%
- Impurities Total (Storage 5° C., 0 M, Prep P1-P5): 0.1 area %
- Impurity RRT 0.86 (Storage 5° C., 0 M, Prep P1-P5): NQ (≥0.02% and <0.05%)
- Impurity RRT 0.99 (Storage 5° C., 0 M, Prep P1-P5): NQ (≥0.02% and <0.05%)
- Purity (Storage 5° C., 0 M, Prep P1-P5): 99.8%
- Impurity RRT 1.16 (Cmp 6) (Storage 5° C., 0 M, Prep P1-P5, listed as Batch B): 0.08 area % and 0.07 area %
- Impurities Total [1]: 0.3 area %
- Impurity RRT 0.80 [1]: NQ (≥0.02% and <0.05%)
- Impurity RRT 0.84 [1]: NQ (≥0.02% and <0.05%)
- Impurity RRT 0.87 [1]: NQ (≥0.02% and <0.05%)
- Impurity RRT 0.99 [1]: 0.05 area %
- Impurity RRT 1.02 [1]: NQ (≥0.02% and <0.05%)
- Impurity RRT 1.05 [1]: NQ (≥0.02% and <0.05%)
- Impurity RRT 1.06 (Cmpd 4) [1]: NQ (≥0.02% and <0.05%)
- Impurity RRT 1.17 (Cmp 6) [1]: 0.26 area %
- Impurity RRT 1.39 [1]: NQ (≥0.02% and <0.05%)
- Purity [1]: 99.6%
- Water Content [1]: <0.04%
- Impurity RRT 0.84 [2]: NQ (≥0.02% and <0.05%)
- Impurity RRT 0.87 [2]: NQ (≥0.02% and <0.05%)
- Impurity RRT 1.02 [2]: NQ (≥0.02% and <0.05%)
- Impurity RRT 1.06 (Cmpd 4) [2]: NQ (≥0.02% and <0.05%)
- Impurity RRT 1.39 [2]: NQ (≥0.02% and <0.05%)
- Water Content [2]: <0.04%
- Impurities Total [3]: 0.2 area % and 0.3 area %
- Impurity RRT 1.17 (Cmp 6) [3]: 0.25 area % and 0.27 area %
- Purity [3]: 99.6% and 99.5%
- Assay (Storage 5° C., 9 M, Avg): 99.1%
- Impurities Total (Storage 5° C., 9 M, Avg): 0.3 area %
- Impurity RRT 0.84 (Storage 5° C., 9 M, Avg): NQ (≥0.02% and <0.05%)
- Impurity RRT 0.87 (Storage 5° C., 9 M, Avg): NQ (≥0.02% and <0.05%)
- Impurity RRT 0.99 (Storage 5° C., 9 M, Avg): 0.11 area %
- Impurity RRT 1.02 (Storage 5° C., 9 M, Avg): NQ (≥0.02% and <0.05%)
- Impurity RRT 1.16 (Cmp 6) (Storage 5° C., 9 M, Avg): 0.18 area %
- Impurity RRT 1.39 (Storage 5° C., 9 M, Avg): NQ (≥0.02% and <0.05%)
- Impurity RRT 1.47 (Storage 5° C., 9 M, Avg): NQ (≥0.02% and <0.05%)
- Purity (Storage 5° C., 9 M, Avg): 99.6%
- Water Content (Storage 5° C., 9 M, Avg): 0.05%
- Impurities Total (Storage 5° C., 9 M, Prep P1-P2): 0.3 area %
- Impurity RRT 0.87 (Storage 5° C., 9 M, Prep P1-P2): NQ (≥0.02% and <0.05%)
- Impurity RRT 0.99 (Storage 5° C., 9 M, Prep P1-P2): 0.11 area %
- Impurity RRT 1.02 (Storage 5° C., 9 M, Prep P1-P2): NQ (≥0.02% and <0.05%)
- Impurity RRT 1.39 (Storage 5° C., 9 M, Prep P1-P2): NQ (≥0.02% and <0.05%)
- Purity (Storage 5° C., 9 M, Prep P1-P2): 99.6%
- Assay [4]: 98.7% and 99.4%
- Impurity RRT 1.16 (Cmp 6) [4]: 0.18 area % and 0.17 area %
- Water Content [4]: 0.1% and 0.05%
- Assay [5]: 99.4%
- Impurities Total [5]: 0.1 area %
- Impurity RRT 0.61 [5]: 0.05 area %
- Impurity RRT 0.86 [5]: NQ (≥0.02% and <0.05%)
- Impurity RRT 0.88 [5]: NQ (≥0.02% and <0.05%)
- Impurity RRT 0.99 [5]: NQ (≥0.02% and <0.05%)
- Impurity RRT 1.16 (Cmp 6) [5]: 0.07 area %
- Purity [5]: 99.8%
- Water Content [5]: 0.1%
- Water Content (Storage 25° C./60% RH, 0 M, Prep P1-P2): 0.1%
- Impurities Total [6]: 0.1 area %
- Impurity RRT 0.86 [6]: NQ (≥0.02% and <0.05%)
- Impurity RRT 0.99 [6]: NQ (≥0.02% and <0.05%)
- Purity [6]: 99.8%
